Assay [1] deals with Candida albicans ATCC 10231. Nature of the assay: Broth microdilution MIC/MFC. In kind it is cell-based. The settings on record: for MFC: ATCC10231, read-out: MFC; for MIC: ATCC10231, read-out: MIC. An outline of the steps: (§1)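 Two-fold dilutions in RPMI 1640 with MOPS (fungi) or Mueller-Hinton broth (bacteria), final 1000–0.488 µg/mL, inoculum 0.5 McFarland in 0.85% NaCl. MIC read spectrophotometrically; MBC/MFC as lowest concentration with no visible growth after well contents were spotted onto agar.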
In general terms: Broth dilution looks for growth in wells or tubes with falling amounts of substance.

Assay [2] deals with Candida albicans ATCC 2091. Nature of the assay: Broth microdilution MIC/MFC. It counts as cell-based. The settings on record: for MFC: ATCC2091, read-out: MFC; for MIC: ATCC2091, read-out: MIC. In short, it runs like this:
as §1

The test system of assay [3] is Candida glabrata ATCC 90030. The assay can be described thus: Broth microdilution MIC/MFC. In kind it is cell-based. To be noted: Nakaseomyces glabratus; for MFC: ATCC90030, read-out: MFC; for MIC: ATCC90030, read-out: MIC. An outline of the steps: as §1
The test system of assay [4] is Candida krusei ATCC 14243. Nature of the assay: Broth microdilution MIC/MFC. It counts as cell-based. To be noted: Pichia kudriavzevii; for MFC: ATCC14243, read-out: MFC; for MIC: ATCC14243, read-out: MIC. An outline of the steps:
as §1

Assay [5] relates to Candida parapsilosis ATCC 22019. The assay can be described thus: Broth microdilution MIC/MFC. In kind it is cell-based. To be noted: Lodderomyces parapsilosis; for MFC: ATCC22019, read-out: MFC; for MIC: ATCC22019, read-out: MIC. In short, it runs like this: as §1
The subject of another assay is Gram-negative bacteria. Nature of the assay: Broth microdilution, summary over reference Gram-negative bacteria. It counts as cell-based. The settings on record: for MIC: range over the reference Gram-negative bacteria; for antibacterial activity in words: reference Gram-negative bacteria. From the text:
Procedures of in vitro antimicrobial assays are described in Supplementary Materials.
2. Microbiology – in vitro antimicrobial activity assays […]
using the broth microdilution method according to the European Committee on Antimicrobial Susceptibility Testing (EUCAST) and Clinical and Laboratory Standards Institute guidelines against a panel of reference and clinical or saprophytic strains of mi croorganisms, including the Gram-positive bacteria: Staphylococcus aureus ATCC 43300 (Methi-cillin Resistant S. aureus – MRSA), Staphylococcus aureus ATCC 29213 (Methicillin Susceptible S. aureus – MSSA), Staph-ylococcus epidermidis ATCC 12228, Micrococcus luteus ATCC 10240, Bacillus subtilis ATCC 6633 and Bacillus cereus ATCC 10876), Gram-negative bacteria: Bordetella bronchiseptica ATCC 4617, Escherichia coli ATCC 25922, Klebsiella pneumoniae ATCC 13883, Proteus mirabilis ATCC 12453, Salmonella typhimurium ATCC 14028 and Pseudomonas aeruginosa ATCC 9027, and fungi belonging to yeasts: Candida albicans ATCC 10231, Candida albicans ATCC 2091, Candida parapsilosis ATCC 22019, Candida glabrata ATCC 90030 and Candida krusei ATCC 14243. The microorganisms belonging to ATCC originated from American Type Culture Collection, routinely used for the evaluation of antimicrobials. All the used microbial cultures were first subcultured on nutrient agar or Sabouraud agar at 35°C for 18-24 h or 30°C for 24-48 h for bacteria […]
The surface of Mueller-Hinton agar (for bacteria) and RPMI 1640 with MOPS (for fungi) were inoculated with the suspensions of bacterial or fungal species. Microbial suspensions were prepared in sterile saline with an optical density of McFarland standard scale 0.5. The samples containing the compounds were dissolved in dimethyl sulfoxide (DMSO).
Furthermore, the bacterial and fungal suspensions put onto the Petri dishes with solid media containing 2 mg/mL of the tested compounds followed were incubated at 37°C for 24h and 30°C for 48h for bacteria and fungi, respectively. […]
Subsequently, MIC (Minimal Inhibitory Concentration) of the compounds was examined by the microdilution broth method, using their two-fold dilutions in Mueller-Hinton broth (for bacteria) and RPMI 1640 broth with MOPS (for fungi) prepared in the 96-well polystyrene plates. […] After incubation, the MIC was assessed spectrophotometrically as the lowest concentration of the […]
Appropriate DMSO, growth and sterile controls were carried out. […] The MBC/MFC was determined by removing the culture used for the MIC determination from each well and spotted onto the appro-priate agar medium. […] The lowest com-pounds concentration with no visible growth observed was assessed as a bactericidal/fungicidal concentration. […]

Assay [6] has as its system Proteus mirabilis ATCC 12453. Nature of the assay: Broth microdilution MIC/MBC. To be noted: ATCC12453.
For assay [7], the system named is Escherichia coli ATCC 25922. The assay can be described thus: Broth microdilution MIC/MBC. The settings on record: ATCC25922.

Values after ≈ are worked out from the molar mass of the structure shown.

By MFC is commonly meant the lowest tested concentration that kills the fungus rather than only halting it. One may read the MIC as the lowest concentration that inhibits growth of the organism. As usually defined, the MBC is the smallest concentration meeting the test's criterion for killing. Lower therefore signals more potent killing.

`O=C(N/N=C/c1cc(I)cc(I)c1O)c1ccccc1I` [Compound 14, N-[(3,5-diiodo-2-hydroxyphenyl)methylidene]-2-iodobenzohydrazide]: the MFC in assay [1] is 1000 µg/mL (≈ 1620 µM); in assay [2], greater than 1000 µg/mL; in assay [3] it was 1000 µg/mL (≈ 1620 µM); in assay [4] it was greater than 1000 µg/mL; in assay [5] it was greater than 1000 µg/mL. Also, the MIC came to 500 µg/mL (≈ 809 µM) in assay [1]; 500 µg/mL (≈ 809 µM) in assay [2]; 250 µg/mL (≈ 405 µM) in assay [3]; 500 µg/mL (≈ 809 µM) in assay [4]; 1000 µg/mL (≈ 1620 µM) in assay [5].
For the molecule `O=C(N/N=C/c1cc(Cl)cc(I)c1O)c1cccc(I)c1` [Compound 20, N-[(5-chloro-2-hydroxy-3-iodophenyl)methylidene]-3-iodobenzohydrazide], the MFC in assay [1], in assay [2], in assay [3], in assay [4] and in assay [5] was greater than 1000 µg/mL in each case. The MIC in assay [1] was 250 µg/mL (≈ 475 µM); in assay [2], 500 µg/mL (≈ 950 µM); in assay [3], 125 µg/mL (≈ 237 µM); in assay [4], 500 µg/mL (≈ 950 µM); in assay [5], 125 µg/mL (≈ 237 µM); in the assay on Gram-negative bacteria it was 500 to 1000 µg/mL (≈ 950 to 1900 µM). The MIC in assay [6] was 500 µg/mL (≈ 950 µM); in assay [7] it was 1000 µg/mL (≈ 1900 µM). Besides, the “antibacterial activity in words” value in the assay with Gram-negative bacteria was “mild or moderate”. The values for the MBC in assay [6] and in assay [7] were 1000 µg/mL (≈ 1900 µM) and greater than 1000 µg/mL, respectively. In addition, the figures for the MBC/MIC in assay [6] and in assay [7] were 2 and greater than 1, respectively.
Regarding `O=C(N/N=C/c1cc(Br)cc(Br)c1O)c1cccc(I)c1` [Compound 21, N-[(3,5-dibromo-2-hydroxyphenyl)methylidene]-3-iodobenzohydrazide], the MFC in assay [1], in assay [2], in assay [3], in assay [4] and in assay [5] was greater than 1000 µg/mL throughout. In addition, the MIC was 250 µg/mL (≈ 477 µM) in assay [1]; 500 µg/mL (≈ 954 µM) in assay [2]; 125 µg/mL (≈ 239 µM) in assay [3]; 500 µg/mL (≈ 954 µM) in assay [4]; 250 µg/mL (≈ 477 µM) in assay [5]; greater than 1000 µg/mL in assay [6]. Further, the MIC in assay [7] was greater than 1000 µg/mL.
As for `O=C(N/N=C/c1cc(Cl)cc(I)c1O)c1ccc(I)cc1` [Compound 27, N-[(5-chloro-2-hydroxy-3-iodophenyl)methylidene]-4-iodobenzohydrazide], the MFC in assay [1] came out at 31.2 µg/mL (≈ 59.4 µM); in assay [2], 62.5 µg/mL (≈ 119 µM); in assay [3], 62.5 µg/mL (≈ 119 µM); in assay [4], 62.5 µg/mL (≈ 119 µM); in assay [5], 62.5 µg/mL (≈ 119 µM). The MIC in assay [1] came out at 15.6 µg/mL (≈ 29.7 µM); in assay [2], 62.5 µg/mL (≈ 119 µM); in assay [3] it was 31.2 µg/mL (≈ 59.4 µM); in assay [4] it was 62.5 µg/mL (≈ 119 µM); in assay [5], 31.2 µg/mL (≈ 59.4 µM); in the assay with Gram-negative bacteria, 500 µg/mL (≈ 950 µM). Also, the MIC in assay [6] and in assay [7] was 500 µg/mL (≈ 950 µM) each time. Moreover, the “antibacterial activity in words” value in the assay with Gram-negative bacteria was “moderate (moderate bioactivity with MIC from 126 to 500 µg/mL)”. In addition, the MBC in assay [6] came to 1000 µg/mL (≈ 1900 µM); in assay [7], 500 µg/mL (≈ 950 µM). Also, the MBC/MIC in assay [6] worked out at 2; in assay [7], 1.
